Paper PMC3344384 (Chemistry & biology, 2011)

Legend:
USP46/UAF1 = USP46/UAF1 (Homo sapiens, UniProt P62068); assay: K63-linked diubiquitin cleavage assay, USP46/UAF1; type: biochemical; conditions: for IC50 USP46/UAF1: K63-linked diubiquitin substrate, NI = no significant inhibition at 114 μM
USP1 alone = molecular target: T1, USP1 alone (Homo sapiens, UniProt O94782); assay: Ub-Rho assay, USP1 alone; type: biochemical; conditions: Ub-Rho substrate, absence of UAF1 subunit
T1 sequence (O94782 1-785): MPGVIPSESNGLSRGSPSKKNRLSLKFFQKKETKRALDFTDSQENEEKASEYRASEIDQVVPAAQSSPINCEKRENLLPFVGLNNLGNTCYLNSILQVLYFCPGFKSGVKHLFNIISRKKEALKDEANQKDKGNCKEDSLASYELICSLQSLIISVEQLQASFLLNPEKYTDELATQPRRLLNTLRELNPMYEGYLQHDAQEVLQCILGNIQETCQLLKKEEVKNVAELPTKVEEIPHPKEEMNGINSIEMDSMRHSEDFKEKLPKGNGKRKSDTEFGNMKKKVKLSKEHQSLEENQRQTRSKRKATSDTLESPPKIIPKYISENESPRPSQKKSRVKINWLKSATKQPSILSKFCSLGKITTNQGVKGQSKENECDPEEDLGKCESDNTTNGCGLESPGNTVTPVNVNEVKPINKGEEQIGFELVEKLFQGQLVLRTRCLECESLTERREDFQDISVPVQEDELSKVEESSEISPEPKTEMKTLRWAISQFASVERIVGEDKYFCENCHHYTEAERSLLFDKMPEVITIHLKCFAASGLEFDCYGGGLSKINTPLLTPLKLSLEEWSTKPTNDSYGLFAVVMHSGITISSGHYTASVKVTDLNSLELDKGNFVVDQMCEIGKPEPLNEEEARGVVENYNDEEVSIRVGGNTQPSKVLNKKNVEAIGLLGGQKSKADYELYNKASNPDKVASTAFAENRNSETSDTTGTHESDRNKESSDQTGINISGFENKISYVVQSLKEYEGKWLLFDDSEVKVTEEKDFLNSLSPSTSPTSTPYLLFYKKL

UCH-L1 = molecular target: T2, UCH-L1 (Homo sapiens, UniProt P09936); assay: Ub-Rho assay, UCH-L1; type: biochemical
T2 sequence (P09936 1-223): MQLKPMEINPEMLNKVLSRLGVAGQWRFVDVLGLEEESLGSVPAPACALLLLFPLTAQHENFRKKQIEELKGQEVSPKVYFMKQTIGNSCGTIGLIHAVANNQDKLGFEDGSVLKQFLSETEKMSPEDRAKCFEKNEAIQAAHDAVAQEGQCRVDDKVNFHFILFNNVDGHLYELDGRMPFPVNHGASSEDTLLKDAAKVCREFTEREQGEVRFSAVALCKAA

SENP1 = molecular target: T3, SENP1 (Homo sapiens, UniProt Q9P0U3); assay: SUMO1-AMC assay, SENP1; type: biochemical; conditions: SUMO1-AMC substrate
T3 sequence (Q9P0U3 1-644): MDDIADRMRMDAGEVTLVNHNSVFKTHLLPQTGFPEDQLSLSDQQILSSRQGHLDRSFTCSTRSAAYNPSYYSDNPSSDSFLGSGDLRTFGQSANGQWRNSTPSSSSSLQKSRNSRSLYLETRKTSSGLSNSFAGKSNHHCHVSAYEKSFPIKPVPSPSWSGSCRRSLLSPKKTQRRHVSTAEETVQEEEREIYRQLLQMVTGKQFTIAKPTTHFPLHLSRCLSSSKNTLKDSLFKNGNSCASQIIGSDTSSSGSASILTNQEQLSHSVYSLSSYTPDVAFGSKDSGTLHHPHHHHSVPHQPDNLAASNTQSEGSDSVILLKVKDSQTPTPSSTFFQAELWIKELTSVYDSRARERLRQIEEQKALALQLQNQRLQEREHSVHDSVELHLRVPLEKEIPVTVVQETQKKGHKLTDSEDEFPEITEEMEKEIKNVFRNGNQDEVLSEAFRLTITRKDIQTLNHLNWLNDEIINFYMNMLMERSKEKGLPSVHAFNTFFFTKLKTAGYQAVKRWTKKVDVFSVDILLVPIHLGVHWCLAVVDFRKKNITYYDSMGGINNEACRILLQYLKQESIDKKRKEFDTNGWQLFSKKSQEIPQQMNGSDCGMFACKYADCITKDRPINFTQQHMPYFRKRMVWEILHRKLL

caspase-6 = molecular target: T4, caspase-6 (Homo sapiens, UniProt P55212); assay: cysteine protease selectivity, caspase-6; type: biochemical
T4 sequence (P55212 24-179 limits assumed): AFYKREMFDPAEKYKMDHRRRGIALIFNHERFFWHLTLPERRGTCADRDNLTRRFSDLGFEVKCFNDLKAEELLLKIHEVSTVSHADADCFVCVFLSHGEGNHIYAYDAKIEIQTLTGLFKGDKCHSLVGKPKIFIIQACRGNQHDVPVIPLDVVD
T4 sequence (P55212 194-293 limits assumed): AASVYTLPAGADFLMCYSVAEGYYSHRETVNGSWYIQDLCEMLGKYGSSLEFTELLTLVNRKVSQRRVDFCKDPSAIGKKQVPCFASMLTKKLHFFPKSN

papain = molecular target: T5, papain (Carica papaya, UniProt P00784); assay: cysteine protease selectivity, papain; type: biochemical
T5 sequence (P00784 134-345): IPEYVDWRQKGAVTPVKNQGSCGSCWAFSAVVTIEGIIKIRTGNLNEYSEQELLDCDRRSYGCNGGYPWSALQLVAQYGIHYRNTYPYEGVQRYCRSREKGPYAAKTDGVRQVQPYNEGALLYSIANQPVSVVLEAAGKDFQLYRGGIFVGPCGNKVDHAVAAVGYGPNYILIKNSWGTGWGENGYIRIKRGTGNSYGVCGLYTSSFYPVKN

USP2 = molecular target: T6, USP2 (Homo sapiens, UniProt O75604); assay: K63-linked diubiquitin cleavage assay, USP2; conditions: for IC50 USP2: NI = no significant inhibition at 114 μM
T6 sequence (O75604 1-605): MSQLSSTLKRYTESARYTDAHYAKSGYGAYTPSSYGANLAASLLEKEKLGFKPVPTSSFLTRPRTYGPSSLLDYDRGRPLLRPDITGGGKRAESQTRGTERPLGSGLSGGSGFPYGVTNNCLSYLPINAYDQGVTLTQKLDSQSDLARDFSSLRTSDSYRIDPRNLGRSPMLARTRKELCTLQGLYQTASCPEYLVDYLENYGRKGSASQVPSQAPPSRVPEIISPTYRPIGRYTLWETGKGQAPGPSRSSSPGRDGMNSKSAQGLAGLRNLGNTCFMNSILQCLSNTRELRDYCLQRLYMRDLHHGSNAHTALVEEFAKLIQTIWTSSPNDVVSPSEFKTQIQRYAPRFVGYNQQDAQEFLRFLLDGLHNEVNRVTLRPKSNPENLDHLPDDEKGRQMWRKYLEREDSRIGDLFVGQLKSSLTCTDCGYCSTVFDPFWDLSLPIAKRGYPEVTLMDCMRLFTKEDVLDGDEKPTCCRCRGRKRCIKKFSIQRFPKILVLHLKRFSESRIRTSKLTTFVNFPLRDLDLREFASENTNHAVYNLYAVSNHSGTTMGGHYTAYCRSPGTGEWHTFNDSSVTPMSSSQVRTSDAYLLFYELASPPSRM

[1] = K63-linked diubiquitin substrate

Chain of USP46/UAF1 (P62068 whole entry): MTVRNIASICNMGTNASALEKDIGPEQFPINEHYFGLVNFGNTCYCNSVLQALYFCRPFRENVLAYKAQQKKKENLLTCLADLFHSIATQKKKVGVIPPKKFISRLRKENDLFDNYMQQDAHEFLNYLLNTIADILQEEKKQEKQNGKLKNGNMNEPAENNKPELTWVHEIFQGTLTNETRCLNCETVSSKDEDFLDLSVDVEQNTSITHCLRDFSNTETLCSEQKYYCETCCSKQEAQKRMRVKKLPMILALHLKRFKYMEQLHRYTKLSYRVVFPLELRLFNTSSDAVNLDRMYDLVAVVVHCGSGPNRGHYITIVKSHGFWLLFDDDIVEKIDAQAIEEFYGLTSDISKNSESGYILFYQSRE
Chain of USP46/UAF1 (Q8TAF3 whole entry partner): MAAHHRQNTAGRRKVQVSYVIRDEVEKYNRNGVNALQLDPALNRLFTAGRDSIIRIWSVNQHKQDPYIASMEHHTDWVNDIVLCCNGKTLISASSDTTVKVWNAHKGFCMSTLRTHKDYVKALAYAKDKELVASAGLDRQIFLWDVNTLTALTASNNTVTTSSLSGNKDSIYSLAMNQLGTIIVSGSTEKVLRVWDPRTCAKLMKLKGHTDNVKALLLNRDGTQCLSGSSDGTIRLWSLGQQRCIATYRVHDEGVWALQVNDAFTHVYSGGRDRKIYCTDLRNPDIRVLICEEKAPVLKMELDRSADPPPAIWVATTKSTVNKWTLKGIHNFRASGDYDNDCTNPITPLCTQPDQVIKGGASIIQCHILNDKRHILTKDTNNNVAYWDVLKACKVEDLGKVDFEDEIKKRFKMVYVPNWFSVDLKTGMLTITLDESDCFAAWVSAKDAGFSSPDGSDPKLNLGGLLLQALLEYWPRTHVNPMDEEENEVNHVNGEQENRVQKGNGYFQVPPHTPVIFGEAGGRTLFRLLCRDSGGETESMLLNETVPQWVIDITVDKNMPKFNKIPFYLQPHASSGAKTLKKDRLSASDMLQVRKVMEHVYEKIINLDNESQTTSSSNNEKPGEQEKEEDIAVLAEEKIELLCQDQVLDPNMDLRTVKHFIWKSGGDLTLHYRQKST

IC50 USP46/UAF1 (USP46/UAF1) | inhibition of USP1 alone (USP1 alone) | IC50 (UCH-L1) [µM] | inhibition of SENP1 (SENP1) | IC50 (caspase-6) [µM] | IC50 (papain) [µM] | IC50 USP2 (USP2; [1]) | SMILES | IC50 (USP46/UAF1) [µM] | IC50 (USP2) [µM] | IC50 for USP2, fold higher than that for USP1/UAF1 (USP2; [1])
did not inhibit | low level of inhibition | > 500 | low level of inhibition | > 250 | ~130 | no inhibition | CN1CCN(CCCN2c3ccccc3Sc3ccc(C(F)(F)F)cc32)CC1 [Trifluoperazine, trifluoperazine] |  |  | 
did not inhibit | low level of inhibition | > 500 | low level of inhibition | > 250 | > 250 | no inhibition | OCCN1CCN(CCC=C2c3ccccc3Sc3ccc(C(F)(F)F)cc32)CC1 [Flupenthixol, flupenthixol] |  |  | 
did not inhibit | low level of inhibition | > 500 | low level of inhibition | > 250 | > 250 | No inhibition | O=c1[nH]c2ccccc2n1C1CCN(CCCC(c2ccc(F)cc2)c2ccc(F)cc2)CC1 [Pimozide, pimozide] |  |  | 

SMILES | IC50 USP46/UAF1 (USP46/UAF1) | inhibition of USP1 alone (USP1 alone) | IC50 (UCH-L1) [µM] | inhibition of SENP1 (SENP1) | IC50 (caspase-6) [µM] | IC50 (papain) [µM] | IC50 USP2 (USP2; [1]) | IC50 (USP46/UAF1) [µM] | IC50 (USP2) [µM] | IC50 for USP2, fold higher than that for USP1/UAF1 (USP2; [1])
CC(C)(Sc1ccc(CCN(CCCCC2CCCCC2)C(=O)NC2CCCCC2)cc1)C(=O)O [GW7647] |  | low level of inhibition | > 200 | low level of inhibition | 21 | ~130 |  | 12 ± 1 | > 114 | more than 23 fold
